Laboratory results published in patent publication US8906913B2, “Azabicyclohexanes” (Panacea Biotec Limited, priority 2009, dated 2014).
Converted amounts (≈) assume the structure as drawn. Read-outs that look alike come from different tables or passages of the source.

Assays:
male SWISS albino mice = assay: Forced Swim Test; type: in vivo; settings: for inhibition in vivo at 32 mg/kg: Mus musculus, 0.25 h, read-out: % decrease in immobility time (dose 32 mg/kg)
Protocol: This test was conducted according to the method of Porsolt et al. (Porsolt, R. D., et al., Behavioural despair in mice: A primary screening test for antidepressants. Arch. in Pharmacodyn. Ther., 229, pp 327-336 (1977)).
A test compound was suspended in deionized water, unless otherwise specified, and this suspension was orally administered to male SWISS albino mice (7 to 9 week old). 15 min later, the mice were placed in a water tank having a water depth of 15 cm and a water temperature of 25±1° C. and immediately thereafter allowed to swim for 6 min. Then, a time during which the mouse was immobile (immobility time) was measured for the last 4 min.

[1] = test system: Staphylococcus aureus ATCC 33591 MRSA (Methicillin resistant); assay: In-vitro antibacterial activity, broth microdilution MIC; type: cell-based
Protocol: (§1) The in-vitro antibacterial activity of the compounds of the present invention (as described in Table 7) was determined by a broth microdilution following the guidelines prescribed by the Clinical and Laboratory Standards Institute (CLSI). This method is described in the CLSI Document M7-A7, Vol. 26, No. 2, “Methods for Dilution Antimicrobial Susceptibility Test for Bacteria that Grow Aerobically; Approved Standard-Seventh Edition”, which is incorporated herein by reference. Minimum Inhibitory Concentration (MIC) is defined as the minimum concentration of test compound which inhibits the growth of bacteria as visible or seen by the naked eye. This test can also be carried out by agar dilution method.
(§2) The compounds of the present invention were tested against a panel of standard microorganisms obtained from ATCC (American type culture collection). Linezolid was used as comparator in all the tests.
(§3) In the broth microdilution method, the compound was dissolved in dimethylsulfoxide and two fold serial dilutions were carried out in 96 well microtitre plates. The inoculum was prepared by adjusting the turbidity of actively growing broth culture and added to the wells to obtain a final bacterial count of ˜2-5×10^4 CFU/well. The microtitre plates were incubated at 35±2° C. for 16-20 h and then read visually.

[2] = test system: Enterococcus faecium ATCC 700221 VRE (Vancomycin resistant E. faecium); assay: as above; type: cell-based
Protocol: as §1, §2, §3

[3] = test system: Staphylococcus aureus ATCC 29213 MSSA (Methicillin sensitive); assay: as above; type: cell-based
Protocol: as §1, §2, §3

[4] = test system: Enterococcus faecalis ATCC 29212 Vancomycin Sensitive; assay: as above; type: cell-based
Protocol: as §1, §2, §3

[5] = Table 8, mice, oral, 32 mg/kg, suspended in deionized water, 15 min before test
[6] = Table 7, S. aureus MRSA, broth microdilution, 35±2° C., 16-20 h, read-out: MIC ATCC 33591
[7] = Table 7, broth microdilution, 35±2° C., 16-20 h, read-out: MIC ATTC 700221
[8] = Table 7, S. aureus MSSA, broth microdilution, 35±2° C., 16-20 h, read-out: MIC ATCC 29213
[9] = ATCC29212, Table 7, E. faecalis vancomycin sensitive, broth microdilution, 35±2° C., 16-20 h, read-out: MIC ATCC 29212
[10] = Table 8, mice, oral, suspended in deionized water, 15 min before test

Row | Structure (SMILES) | MIC [1, 6] [µg/mL] | MIC [2, 7] [µg/mL] | MIC [3, 8] [µg/mL] | MIC [4, 9] [µg/mL] | other results
1 | CCN1CC2C(COC)C2(c2ccc(N3CCCC3)cc2)C1 (stereo not drawn) [drawing 531] |  |  |  |  | inhibition in vivo at 32 mg/kg (male SWISS albino mice; [5]): 97.2 ± 1.2%
2 | CC(=O)NC[C@H]1CN(c2ccc(N3CCOCC3)c(F)c2)C(=O)O1 [Linezolid, reference compound] | 1 (≈ 2.96 µM) | 1 (≈ 2.96 µM) | 2 (≈ 5.93 µM) | 2 (≈ 5.93 µM) | 
3 | CC(=O)NC[C@H]1CN(c2ccc(C34CC3CN(C(=O)N(C)C)C4)cc2)C(=O)O1 (stereo partly drawn) | 1 (≈ 2.59 µM) | 0.25 (≈ 0.647 µM) | 4 (≈ 10.4 µM) | 0.5 (≈ 1.29 µM) | 
4 | CCN1CC2CC2(c2ccc(N3CCOC3=O)cc2)C1 (stereo not drawn) |  |  |  |  | inhibition in vivo at 32 mg/kg (male SWISS albino mice; po): 99.2 ± 0.8%
5 | COC(=O)N1C[C@@H]2C[C@]2(c2ccc(N3C[C@H](CNC(C)=O)OC3=O)cc2)C1 | 0.5 (≈ 1.34 µM) | 0.5 (≈ 1.34 µM) | 1 (≈ 2.68 µM) | 1 (≈ 2.68 µM) | 
6 | CC(=O)NC[C@H]1CN(c2ccc(C34CC3CN(C(C)=O)C4)cc2)C(=O)O1 (stereo partly drawn) [drawing 482] | 1 (≈ 2.8 µM) | 2 (≈ 5.6 µM) | 2 (≈ 5.6 µM) | 2 (≈ 5.6 µM) | 
7 | CCN1C[C@@H]2C[C@]2(c2ccc(N3CC(C)OC(C)C3)cc2)C1 (stereo partly drawn) |  |  |  |  | inhibition in vivo at 32 mg/kg (male SWISS albino mice; [5]): 80.9 ± 8.7%
8 | CC(=O)NC[C@H]1CN(c2ccc(C34CC3CN(C(=O)C(=O)c3ccco3)C4)cc2)C(=O)O1 (stereo partly drawn) | 1 (≈ 2.29 µM) | 0.5 (≈ 1.14 µM) | 1 (≈ 2.29 µM) | 1 (≈ 2.29 µM) | 
9 | CC(=O)NC[C@H]1CN(c2ccc(C34CC3CN(C(=O)c3cccnc3)C4)cc2)C(=O)O1 (stereo partly drawn) | 1 (≈ 2.38 µM) | 2 (≈ 4.76 µM) | 2 (≈ 4.76 µM) | 2 (≈ 4.76 µM) | 
10 | COC(=O)NC[C@H]1CN(c2ccc(C34CC3CN(C(C)=O)C4)cc2)C(=O)O1 (stereo partly drawn) | 1 (≈ 2.68 µM) | 1 (≈ 2.68 µM) | 2 (≈ 5.36 µM) | 2 (≈ 5.36 µM) | 
11 | CC(=O)NC[C@H]1CN(c2ccc(C34CC3CN(c3nccs3)C4)cc2)C(=O)O1 (stereo partly drawn) | 0.25 (≈ 0.627 µM) | 0.5 (≈ 1.25 µM) | 0.5 (≈ 1.25 µM) | 0.125 (≈ 0.314 µM) | 
12 | CCN1CC2CC2(c2ccc(N3CCOCC3=O)cc2)C1.Cl (stereo not drawn) |  |  |  |  | % decrease in immobility time (dose 64 mg/kg) (male SWISS albino mice; [10]): 88.7 ± 5.2%
13 | CC(=O)N1CC2CC2(c2ccc(N3C[C@H](CO)OC3=O)cc2)C1 (stereo partly drawn) [drawing 484] | 2 (≈ 6.32 µM) | 4 (≈ 12.6 µM) | 4 (≈ 12.6 µM) | 4 (≈ 12.6 µM) | 
14 | CC(=O)NC[C@H]1CN(c2ccc(C34CC3CN(C(C)=O)C4)cc2)C(=O)O1 (stereo partly drawn) [drawing 533] |  |  |  |  | MIC ([1]; Table 9, S. aureus MRSA, read-out: Antimicrobial activity (in vitro MIC) ATCC 33591): 1 µg/mL (≈ 2.8 µM); MIC ([2]; Table 9, read-out: Antimicrobial activity (in vitro MIC) ATCC 700221): 2 µg/mL (≈ 5.6 µM); MIC ([3]; Table 9, S. aureus MSSA, read-out: Antimicrobial activity (in vitro MIC) ATCC 29213): 2 µg/mL (≈ 5.6 µM); MIC ([4]; ATCC29212, Table 9, E. faecalis, read-out: Antimicrobial activity (in vitro MIC) ATCC 29212): 2 µg/mL (≈ 5.6 µM)
15 | CC(=O)NC[C@H]1CN(c2ccc(C34CC3CN(C(=O)CO)C4)cc2)C(=O)O1 (stereo partly drawn) | 0.5 (≈ 1.34 µM) | 0.5 (≈ 1.34 µM) | 0.5 (≈ 1.34 µM) | 0.5 (≈ 1.34 µM) | 
16 | CC(=O)NC[C@H]1CN(c2ccc(C34CC3CN(S(C)(=O)=O)C4)cc2)C(=O)O1 (stereo partly drawn) | 1 (≈ 2.54 µM) | 1 (≈ 2.54 µM) | 2 (≈ 5.08 µM) | 2 (≈ 5.08 µM) | 
17 | CC(=O)NC[C@H]1CN(c2ccc(C34CC3CN(C(=O)c3cn5cccnc5n3)C4)cc2)C(=O)O1 (stereo partly drawn) | 2 (≈ 4.34 µM) | 1 (≈ 2.17 µM) | 2 (≈ 4.34 µM) | 1 (≈ 2.17 µM) | 
18 | CCN1C[C@H]2C[C@@]2(c2ccc(N3C[C@H](C)O[C@@H](C)C3)cc2)C1 |  |  |  |  | inhibition in vivo at 32 mg/kg (male SWISS albino mice; [5]): 79.8 ± 10.7%

Row | Structure (SMILES) | MIC [1, 6] [µg/mL] | MIC [2, 7] [µg/mL] | MIC [3, 8] [µg/mL] | MIC [4, 9] [µg/mL] | other results
19 | CCN1CC2CC2(c2cc3cc(N4CCOCC4)ccc3s2)C1 (stereo not drawn) |  |  |  |  | % decrease in immobility time (dose 64 mg/kg) (male SWISS albino mice; [10]): 38.4 ± 2.7%
20 | COC(=O)N1CC2CC2(c2ccc(N3C[C@H](Cn4ccnn4)OC3=O)cc2)C1 (stereo partly drawn) | 0.5 (≈ 1.3 µM) | 1 (≈ 2.61 µM) | 1 (≈ 2.61 µM) | 2 (≈ 5.22 µM) | 
21 | CCOC(=O)OCC(=O)N1CC2CC2(c2ccc(N3C[C@H](CNC(C)=O)OC3=O)cc2)C1 (stereo partly drawn) | 1 (≈ 2.24 µM) | 0.5 (≈ 1.12 µM) | 2 (≈ 4.49 µM) | 0.5 (≈ 1.12 µM) | 
22 | COC(=O)N1C[C@H]2C[C@@]2(c2ccc(N3C[C@H](CNC(C)=O)OC3=O)cc2)C1 | 1 (≈ 2.68 µM) | 1 (≈ 2.68 µM) | 2 (≈ 5.36 µM) | 1 (≈ 2.68 µM) | 
23 | CC(=O)NC[C@H]1CN(c2ccc(C34CC3CN(C(=O)OC(C)C)C4)cc2)C(=O)O1 (stereo partly drawn) | 1 (≈ 2.49 µM) | 1 (≈ 2.49 µM) | 2 (≈ 4.98 µM) | 2 (≈ 4.98 µM) | 
24 | COC(=O)N1CC2CC2(c2ccc(N3C[C@H](CNC(C)=O)OC3=O)cc2F)C1 (stereo partly drawn) | 0.5 (≈ 1.28 µM) | 0.5 (≈ 1.28 µM) | 1 (≈ 2.55 µM) | 0.5 (≈ 1.28 µM) | 
25 | CC(=O)NC[C@H]1CN(c2ccc(C34CC3CN(c3nc5ccccc5s3)C4)cc2)C(=O)O1 (stereo partly drawn) | 0.5 (≈ 1.11 µM) | 0.25 (≈ 0.557 µM) | 1 (≈ 2.23 µM) | 1 (≈ 2.23 µM) | 
26 | COC(=O)N1CC2CC2(c2ccc(N3C[C@H](CNC(C)=O)OC3=O)cc2)C1 (stereo partly drawn) | 1 (≈ 2.68 µM) | 1 (≈ 2.68 µM) | 2 (≈ 5.36 µM) | 2 (≈ 5.36 µM) | 
27 | CC(=O)NCC(=O)N1CC2CC2(c2ccc(N3C[C@H](CNC(C)=O)OC3=O)cc2)C1 (stereo partly drawn) | 4 (≈ 9.65 µM) | 4 (≈ 9.65 µM) | 4 (≈ 9.65 µM) | 2 (≈ 4.83 µM) | 
28 | CC(=O)N1CC2CC2(c2ccc(N3C[C@H](Cn4ccnn4)OC3=O)cc2)C1 (stereo partly drawn) | 2 (≈ 5.44 µM) | 1 (≈ 2.72 µM) | 1 (≈ 2.72 µM) | 2 (≈ 5.44 µM) | 
29 | CC(=O)NC[C@H]1CN(c2ccc(C34CC3CN(C(C)=O)C4)c(F)c2)C(=O)O1 (stereo partly drawn) | 0.5 (≈ 1.33 µM) | 0.5 (≈ 1.33 µM) | 1 (≈ 2.66 µM) | 1 (≈ 2.66 µM) | 
30 | CC(=O)NC[C@H]1CN(c2ccc(C34CC3CN(Cc3cccnc3)C4)cc2)C(=O)O1 (stereo partly drawn) | 4 (≈ 9.84 µM) | 2 (≈ 4.92 µM) | 4 (≈ 9.84 µM) | 8 (≈ 19.7 µM) | 
31 | CC(=O)NC[C@H]1CN(c2ccc(C34CC3CN(C#N)C4)cc2)C(=O)O1 (stereo partly drawn) | 0.5 (≈ 1.47 µM) | 0.5 (≈ 1.47 µM) | 0.5 (≈ 1.47 µM) | 1 (≈ 2.94 µM) | 
32 | CC(=O)NC[C@H]1CN(c2ccc(C34CC3CN(C(=O)C(F)(F)F)C4)cc2)C(=O)O1 (stereo partly drawn) | 2 (≈ 4.86 µM) | 1 (≈ 2.43 µM) | 2 (≈ 4.86 µM) | 2 (≈ 4.86 µM) | 
33 | CC(=O)NC[C@H]1CN(c2ccc(C34CC3CN(c3ccccn3)C4)cc2)C(=O)O1 (stereo partly drawn) | 0.5 (≈ 1.27 µM) | 1 (≈ 2.55 µM) | 1 (≈ 2.55 µM) | 0.5 (≈ 1.27 µM) | 
34 | COC(=O)NC[C@H]1CN(c2ccc(C34CC3CN(C(=O)OC)C4)cc2)C(=O)O1 (stereo partly drawn) | 1 (≈ 2.57 µM) | 1 (≈ 2.57 µM) | 1 (≈ 2.57 µM) | 1 (≈ 2.57 µM) | 
35 | CC(=O)NC[C@H]1CN(c2ccc(C34CC3CN(C(=O)CCc3ccccc3)C4)cc2)C(=O)O1 (stereo partly drawn) | 1 (≈ 2.23 µM) | 0.5 (≈ 1.12 µM) | 1 (≈ 2.23 µM) | 1 (≈ 2.23 µM) | 
36 | CC(=O)NC[C@H]1CN(c2ccc(C34CC3CN(c3ccc(F)nc3)C4)cc2)C(=O)O1 (stereo partly drawn) | 0.5 (≈ 1.22 µM) | 0.5 (≈ 1.22 µM) | 1 (≈ 2.44 µM) | 1 (≈ 2.44 µM) | 
